Measurements as given in ChEMBL document CHEMBL4184139, “Adamantyl- and other polycyclic cage-based conjugates of desferrioxamine B (DFOB) for treating iron-mediated toxicity in cell models of Parkinson's disease” (Bioorg Med Chem Lett, 2017).
Active and inactive are the calls of the source. The rule behind the calls is not given here.

How the values were obtained:
[1] = test system: SK-N-BE(2)-M17; assay: Cytoprotection against PQ-induced cell death in human SK-N-BE(2)-M17 cells assessed as increase in cell viability at 100 uM pretreated for 2 hrs followed by 1 mM PQ addition measured after 24 hrs by MTT assay; assay type: functional, cell-based
[2] = test system: SK-N-BE(2)-M17; assay: Cytoprotection against H2O2-induced cell death in human SK-N-BE(2)-M17 cells assessed as increase in cell viability at 100 uM pretreated for 2 hrs followed by 1 mM H2O2 addition measured after 24 hrs by MTT assay; assay type: functional, cell-based
[3] = test system: SK-N-BE(2)-M17; assay: Cytotoxicity against human SK-N-BE(2)-M17 cells at 100 uM 24 hrs by MTT assay; assay type: cell-based; details: sk-n-be(2)-m17, 24 h
[4] = test system: SK-N-BE(2)-M17; assay: Cytoprotection against PQ-induced cell death in human SK-N-BE(2)-M17 cells assessed as increase in cell viability at 100 uM pretreated for 2 hrs followed by 1 mM PQ addition measured after 24 hrs by LDH assay; assay type: functional, cell-based
[5] = Binding affinity to Fe3+ assessed as change in retention time for compound-Fe3+ complex by RP-HPLC analysis relative to free ligand
[6] = test system: SK-N-BE(2)-M17; assay: Cytoprotection against PQ-induced cell death in human SK-N-BE(2)-M17 cells assessed as increase in cell viability at 100 uM treated post 200 uM Fecl3 and 1 mM PQ treatment measured after 24 hrs by MTT assay; assay type: functional, cell-based
[7] = test system: SK-N-BE(2)-M17; assay: Cytoprotection against PQ-induced cell death in human SK-N-BE(2)-M17 cells assessed as increase in cell viability treated 2 hrs post 2 mM PQ treatment measured after 24 hrs by MTT assay; assay type: functional, cell-based
[8] = test system: Astrocyte; assay: Cytoprotection against H2O2-induced cell death in BSO pretreated C57BL6/J mouse brain primary astrocytes assessed as increase in cell viability at 10 uM pretreated for 2 hrs followed by H2O2 addition measured after 24 hrs by MTT assay; assay type: functional, cell-based
[9] = test system: SK-N-BE(2)-M17; assay: Cytoprotection against H2O2-induced cell death in human SK-N-BE(2)-M17 cells assessed as increase in cell viability at 100 uM treated 2 hrs post 0.8 mM H2O2 treatment measured after 24 hrs by MTT assay; assay type: functional, cell-based
[10] = test system: SK-N-BE(2)-M17; assay: Cytoprotection against H2O2-induced cell death in human SK-N-BE(2)-M17 cells assessed as increase in cell viability at 100 uM pretreated for 2 hrs followed by 1 mM H2O2 addition measured after 24 hrs by LDH assay; assay type: functional, cell-based
[11] = Octanol-water partition coefficient, log P of the compound at 1 mg by RP-HPLC analysis; assay type: physicochemical
[12] = test system: SK-N-BE(2)-M17; assay: Cytoprotection against PQ-induced cell death in human SK-N-BE(2)-M17 cells assessed as increase in cell viability at 100 uM treated 2 hrs post 2 mM PQ treatment measured after 24 hrs by MTT assay; assay type: functional, cell-based
[13] = Binding affinity to Fe3+ assessed as [M+H]+ adduct formation by LC-MS/MS analysis
[14] = Binding affinity to Fe3+ assessed as [M+2H]+ adduct formation by LC-MS/MS analysis
[15] = test system: SK-N-BE(2)-M17; assay: Cytotoxicity against human SK-N-BE(2)-M17 cells at 100 uM 24 hrs by LDH release assay; assay type: cell-based; details: sk-n-be(2)-m17, 24 h
[16] = test system: SK-N-BE(2)-M17; assay: Cytoprotection against PQ-induced cell death in human SK-N-BE(2)-M17 cells assessed as increase in cell viability at 100 uM treated post 200 uM Fecl3 and 1 mM PQ treatment measured after 24 hrs by LDH assay; assay type: functional, cell-based
[17] = test system: SK-N-BE(2)-M17; assay: Cytoprotection against PQ-induced cell death in human SK-N-BE(2)-M17 cells assessed as increase in cell viability at 100 uM treated 2 hrs post 2 mM PQ treatment measured after 24 hrs by LDH assay; assay type: functional, cell-based
[18] = test system: SK-N-BE(2)-M17; assay: Cytoprotection against H2O2-induced cell death in human SK-N-BE(2)-M17 cells assessed as increase in cell viability at 100 uM treated 2 hrs post 0.8 mM H2O2 treatment measured after 24 hrs by LDH assay; assay type: functional, cell-based
[19] = test system: Astrocyte; assay: Cytoprotection against H2O2-induced cell death in BSO pretreated C57BL6/J mouse brain primary astrocytes assessed as increase in cell viability at 10 uM pretreated for 2 hrs followed by H2O2 addition measured after 24 hrs by LDH release assay; assay type: functional, cell-based

| SMILES | Retention time [5] | logP [11] | Activity [13] | Activity [14] | Activity [1] | Activity [2] | Activity [3] | Activity [4] | Activity [6] | EC50 [7] | Activity [8] | Activity [9] | Activity [10] | Activity [12] | Activity [15] | Activity [16] | Activity [17] | Activity [18] | Activity [19] |
| --- | --- | --- | --- | --- | --- | --- | --- | --- | --- | --- | --- | --- | --- | --- | --- | --- | --- | --- | --- |
| CC(=O)N(O)CCCCCNC(=O)CCC(=O)N(O)CCCCCNC(=O)CCC(=O)N(O)CCCCCNC(=O)C12CC3CC(CC(C3)C1)C2 | 0.43 min | 1.32 | Active | Active | Active | Active | Non-Toxic | Active | Active |  | Active | Active | Active | Active | Non-Toxic | Active | Active | Active | Active |
| c1ccc2ccccc2c1 |  | 3.27 |  |  |  |  |  |  |  |  |  |  |  |  |  |  |  |  |  |
| c1ccc2c(c1)oc1ccccc12 [DIBENZOFURAN] |  | 3.76 |  |  |  |  |  |  |  |  |  |  |  |  |  |  |  |  |  |
| CC(=O)N(O)CCCCCNC(=O)CCC(=O)N(O)CCCCCNC(=O)CCC(=O)N(O)CCCCCNC(=O)C12CC3CC(C)(CC(C)(C3)C1)C2 | 1.06 min | 2.07 | Active | Active | Active | Active | Non-Toxic | Active | Active | 9.8 µM | Active | Active | Active | Active | Non-Toxic | Active |  |  | Active |
| COC(=O)c1ccccc1C(=O)OC [DIMETHYL PHTHALATE] |  | 1.59 |  |  |  |  |  |  |  |  |  |  |  |  |  |  |  |  |  |
| CC(=O)N(O)CCCCCNC(=O)CCC(=O)N(O)CCCCCNC(=O)CCC(=O)N(O)CCCCCNC(=O)[C@H]1C[C@H]2C=C[C@H]1C2 | -0.52 to 0 min | 0.5 to 1.4 | Active | Active | Active | Active | Non-Toxic | Active | Active |  |  | Active | Active | Active | Non-Toxic | Active | Active | Active |  |
| CC(=O)N(O)CCCCCNC(=O)CCC(=O)N(O)CCCCCNC(=O)CCC(=O)N(O)CCCCCNC(=O)C12CC3CC(CC(Cl)(C3)C1)C2 | 0.83 min | 1.84 | Active | Active | inactive | inactive | Non-Toxic | inactive | Active |  | Active | inactive | inactive | inactive | Non-Toxic |  | inactive | inactive | Active |

More lines, main results first:

| Retention time [5] | logP [11] | Activity [13] | Activity [14] | SMILES | Activity [1] | Activity [2] | Activity [3] | Activity [4] | Activity [6] | EC50 [7] | Activity [8] | Activity [9] | Activity [10] | Activity [12] | Activity [15] | Activity [16] | Activity [17] | Activity [18] | Activity [19] |
| --- | --- | --- | --- | --- | --- | --- | --- | --- | --- | --- | --- | --- | --- | --- | --- | --- | --- | --- | --- |
| 0.48 min | 0.98 | Active | Active | CC(=O)N(O)CCCCCNC(=O)CCC(=O)N(O)CCCCCNC(=O)CCC(=O)N(O)CCCCCNC(=O)C12CC3CC(CC1C3)C2 | Active | Active | Non-Toxic | Active | Active | 30 µM | Active | Active | Active | Active | Non-Toxic |  |  |  |  |
| 0.27 min | 1.16 | Active | Active | CC(=O)N(O)CCCCCNC(=O)CCC(=O)N(O)CCCCCNC(=O)CCC(=O)N(O)CCCCCNC(=O)C[C@H]1C[C@H]2CC[C@H]1C2 (relative stereo) | Active | Active | Non-Toxic | Active |  |  |  | Active | Active | Active | Non-Toxic |  | Active | Active |  |
| 1.71 min | 2.09 | Active | Active | CC(=O)N(O)CCCCCNC(=O)CCC(=O)N(O)CCCCCNC(=O)CCC(=O)N(O)CCCCCNC(=O)C12CC3CC(C1)CC(c1ccc([N+](=O)[O-])cc1)(C3)C2 | Active | Active | Non-Toxic | Active |  |  | Active | Active | Active | Active | Non-Toxic | Active | Active | Active | Active |
| 0.91 min | 1.9 | Active | Active | CC(=O)N(O)CCCCCNC(=O)CCC(=O)N(O)CCCCCNC(=O)CCC(=O)N(O)CCCCCNC(=O)C12CC3CC(CC(Br)(C3)C1)C2 | inactive | inactive | Non-Toxic | inactive |  |  | Active | inactive | inactive | inactive | Non-Toxic |  | inactive | inactive |  |
| 1.09 min | 1.84 | Active | Active | CC(=O)N(O)CCCCCNC(=O)CCC(=O)N(O)CCCCCNC(=O)CCC(=O)N(O)CCCCCNC(=O)CC12CC3CC(CC(Br)(C3)C1)C2 | inactive | inactive | Non-Toxic | inactive |  |  |  | inactive | inactive | inactive | Non-Toxic |  | inactive | inactive |  |
| 0.65 min | 1.87 | Active | Active | CC(=O)N(O)CCCCCNC(=O)CCC(=O)N(O)CCCCCNC(=O)CCC(=O)N(O)CCCCCNC(=O)C1CC2CCCC(C2)C1 (stereo not given) | inactive | inactive | Non-Toxic | inactive | Active |  | Active | inactive | inactive | inactive | Non-Toxic | Active | inactive | inactive | Active |
| 0.08 min | 0.55 | Active | Active | CC(=O)N(O)CCCCCNC(=O)CCC(=O)N(O)CCCCCNC(=O)CCC(=O)N(O)CCCCCNC(=O)[C@H]1C[C@H]2CC[C@H]1C2 (relative stereo) | Active | Active | Non-Toxic | Active | Active |  |  | Active | Active | Active | Non-Toxic | Active | Active | Active |  |
| -0.52 min | 0.15 | Active | Active | CC(=O)N(O)CCCCCNC(=O)CCC(=O)N(O)CCCCCNC(=O)CCC(=O)N(O)CCCCCNC(=O)CC12CC3CC(CC(O)(C3)C1)C2 | Active | Active | Non-Toxic | Active |  |  |  |  | Active |  | Non-Toxic |  |  |  |  |
